Results as given in article PMC8667942 (Journal of Enzyme Inhibition and Medicinal Chemistry, 2021).

Key:
Test in all cases: Direct CYP inhibition assay, pooled human liver microsomes, LC-MS/MS
Type in all cases: in vitro ADME
CYP2C19 = target: T1, CYP2C19 (Homo sapiens, UniProt P33261); conditions: pooled HLMs, up to 50 μM, S-mephenytoin substrate
T1 construct: from tissue; host or cells: pooled human liver microsomes
Procedure: (§1) Reactions were incubated in eight-well strips placed in an 8 × 12 racks (1.2 ml; VWR, Emeryville, CA). The incubation mixtures (final volume, 200 μL) contained 0.2 mg/mL HLMs, 0.1 M phosphate buffer (pH 7.4), 1 mM NADPH, and various CYP isoform-specific substrate cocktail sets (A set: phenacetin, coumarin, amodiaquine, S-mephenytoin, dextromethorphan, and midazolam; B set: bupropion, tolbutamide, chlorzoxazone, and testosterone). […] Substrates were dissolved and serially diluted with acetonitrile to the required concentration in all experiments. […] The reactions were incubated at 37 °C in a shaking water bath. The reactions were terminated by placing the incubation tubes on ice, adding 200 μL of cold acetonitrile containing carbamazepine (100 nM) and 4-methylumbelliferone (500 nM) as an internal standard after 10 min, and agitating with a vortex mixer before centrifugation. The samples for each enzyme assay were centrifuged at 3,000 × g for 20 min at 4 °C, and supernatants of the individual reaction samples and pooled cocktail incubation samples (A set: B set, 1:1) were analysed using LC-MS/MS.
(§2) Sample injection volume was 10 μL, and separation was performed on an Atlantis™ dC18 column (2.1 × 50 mm i.d., 3 μm; Waters, Milford, MA, USA) and Luna™5u C18 column (2.0 × 30 mm i.d.; Phenomenex, Torrance, CA, USA) with a SecurityGuard™ C18 guard column (2.0 × 4.0 mm i.d.; Phenomenex, Torrance, CA, USA) maintained at 30 °C. The column was pre-equilibrated in 100% v/v solvent A (deionized water containing 0.1% v/v formic acid)/0% v/v solvent B (acetonitrile containing 0.1% v/v formic acid) at a flow rate of 0.4 ml/min. […] Quadrupoles Q1 and Q3 were set on unit resolution. The samples were analysed via multiple reaction monitoring (MRM) and enhanced product ion (EPI) scan mode. The turbo ion spray interface was operated in the positive ion mode at 5,500 V. The operating conditions were determined as follows: ion source temperature, 600 °C; nebulising gas flow, 50 L/min; auxiliary gas flow, 4.0 L/min; curtain gas flow, 20 L/min; collision gas (nitrogen) pressure 3.6 × 10^−5 Torr. Nitrogen gas was used for CUR, CAD, and NEB. The MRM transitions, collision energies and retention time were determined for each metabolite. The samples were analysed via MRM as described in our previous study. The scan dwell time was set at 0.08 s for every channel. Data acquisition and analysis was performed using the Analyst™ software (version 1.5.2; Applied Biosystems, Foster City, CA, USA).

CYP2D6 = target: T2, CYP2D6 (Homo sapiens, UniProt P10635); conditions: pooled HLMs, up to 50 μM, dextromethorphan substrate
T2 construct: from tissue; host or cells: pooled human liver microsomes
T2 sequence (P10635 whole entry): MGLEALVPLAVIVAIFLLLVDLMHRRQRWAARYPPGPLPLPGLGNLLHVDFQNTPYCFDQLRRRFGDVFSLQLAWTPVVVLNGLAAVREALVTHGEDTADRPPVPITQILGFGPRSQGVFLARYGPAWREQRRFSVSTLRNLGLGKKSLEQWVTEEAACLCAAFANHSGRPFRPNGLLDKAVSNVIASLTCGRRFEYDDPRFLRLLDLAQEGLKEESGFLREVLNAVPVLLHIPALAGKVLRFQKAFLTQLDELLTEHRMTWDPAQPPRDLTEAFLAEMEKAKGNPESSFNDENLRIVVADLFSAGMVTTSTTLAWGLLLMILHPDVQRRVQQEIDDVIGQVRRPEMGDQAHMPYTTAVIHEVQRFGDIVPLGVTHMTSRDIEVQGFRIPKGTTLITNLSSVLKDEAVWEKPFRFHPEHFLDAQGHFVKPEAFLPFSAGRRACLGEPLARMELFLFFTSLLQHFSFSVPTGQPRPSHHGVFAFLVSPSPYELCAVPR
Procedure: as §1, §2

CYP2E1 = target: T3, CYP2E1 (Homo sapiens, UniProt P05181); conditions: pooled HLMs, up to 50 μM, chlorzoxazone substrate
T3 construct: from tissue; host or cells: pooled human liver microsomes
T3 sequence (P05181 whole entry): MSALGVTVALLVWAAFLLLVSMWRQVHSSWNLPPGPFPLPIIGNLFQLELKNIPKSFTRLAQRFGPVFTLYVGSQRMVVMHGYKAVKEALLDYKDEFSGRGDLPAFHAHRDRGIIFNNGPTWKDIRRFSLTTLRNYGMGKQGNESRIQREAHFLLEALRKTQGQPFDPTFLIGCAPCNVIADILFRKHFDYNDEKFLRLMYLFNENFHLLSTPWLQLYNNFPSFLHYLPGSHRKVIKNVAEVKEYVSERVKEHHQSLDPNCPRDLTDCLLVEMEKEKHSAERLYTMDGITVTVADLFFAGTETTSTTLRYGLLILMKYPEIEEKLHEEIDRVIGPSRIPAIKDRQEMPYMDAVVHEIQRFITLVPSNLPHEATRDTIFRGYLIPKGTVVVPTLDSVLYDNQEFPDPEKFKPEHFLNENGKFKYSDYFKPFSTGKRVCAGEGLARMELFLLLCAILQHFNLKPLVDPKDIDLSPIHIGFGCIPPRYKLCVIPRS
Procedure: as §1, §2

CYP2C9 = target: T4, CYP2C9 (Homo sapiens, UniProt P11712); conditions: pooled HLMs, up to 50 μM, tolbutamide substrate
T4 construct: from tissue; host or cells: pooled human liver microsomes
T4 sequence (P11712 whole entry): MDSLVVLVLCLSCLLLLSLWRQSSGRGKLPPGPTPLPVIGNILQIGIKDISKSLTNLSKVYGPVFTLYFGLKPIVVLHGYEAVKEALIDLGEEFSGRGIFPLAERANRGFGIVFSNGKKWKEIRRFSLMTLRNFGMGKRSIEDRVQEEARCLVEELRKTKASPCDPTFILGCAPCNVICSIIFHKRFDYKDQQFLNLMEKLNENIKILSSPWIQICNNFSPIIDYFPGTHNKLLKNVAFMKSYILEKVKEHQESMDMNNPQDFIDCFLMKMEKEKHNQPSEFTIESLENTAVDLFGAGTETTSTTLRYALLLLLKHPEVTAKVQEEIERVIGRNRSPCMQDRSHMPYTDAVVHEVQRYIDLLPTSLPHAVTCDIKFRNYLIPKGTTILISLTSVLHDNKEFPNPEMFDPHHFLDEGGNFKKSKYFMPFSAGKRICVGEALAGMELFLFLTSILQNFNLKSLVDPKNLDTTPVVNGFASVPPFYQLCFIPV
Procedure: as §1, §2

CYP2C8 = target: T5, CYP2C8 (Homo sapiens, UniProt P10632); conditions: pooled HLMs, up to 50 μM, amodiaquine substrate
T5 construct: from tissue; host or cells: pooled human liver microsomes
T5 sequence (P10632 1-490): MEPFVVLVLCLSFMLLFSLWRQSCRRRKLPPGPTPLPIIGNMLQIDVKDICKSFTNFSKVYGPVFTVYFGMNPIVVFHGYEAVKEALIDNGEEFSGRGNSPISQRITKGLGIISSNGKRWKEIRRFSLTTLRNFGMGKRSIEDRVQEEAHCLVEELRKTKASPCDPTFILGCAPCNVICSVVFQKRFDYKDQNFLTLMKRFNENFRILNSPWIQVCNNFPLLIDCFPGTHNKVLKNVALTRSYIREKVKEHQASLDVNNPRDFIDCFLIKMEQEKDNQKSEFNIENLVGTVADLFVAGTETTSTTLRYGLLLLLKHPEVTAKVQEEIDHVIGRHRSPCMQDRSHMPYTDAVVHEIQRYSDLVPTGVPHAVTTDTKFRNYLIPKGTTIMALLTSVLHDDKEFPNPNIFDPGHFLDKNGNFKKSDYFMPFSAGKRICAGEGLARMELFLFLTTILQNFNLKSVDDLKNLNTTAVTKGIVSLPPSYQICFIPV
Procedure: as §1, §2

CYP2A6 = target: T6, CYP2A6 (Homo sapiens, UniProt P11509); conditions: pooled HLMs, up to 50 μM, coumarin substrate
T6 construct: from tissue; host or cells: pooled human liver microsomes
T6 sequence (P11509 1-494): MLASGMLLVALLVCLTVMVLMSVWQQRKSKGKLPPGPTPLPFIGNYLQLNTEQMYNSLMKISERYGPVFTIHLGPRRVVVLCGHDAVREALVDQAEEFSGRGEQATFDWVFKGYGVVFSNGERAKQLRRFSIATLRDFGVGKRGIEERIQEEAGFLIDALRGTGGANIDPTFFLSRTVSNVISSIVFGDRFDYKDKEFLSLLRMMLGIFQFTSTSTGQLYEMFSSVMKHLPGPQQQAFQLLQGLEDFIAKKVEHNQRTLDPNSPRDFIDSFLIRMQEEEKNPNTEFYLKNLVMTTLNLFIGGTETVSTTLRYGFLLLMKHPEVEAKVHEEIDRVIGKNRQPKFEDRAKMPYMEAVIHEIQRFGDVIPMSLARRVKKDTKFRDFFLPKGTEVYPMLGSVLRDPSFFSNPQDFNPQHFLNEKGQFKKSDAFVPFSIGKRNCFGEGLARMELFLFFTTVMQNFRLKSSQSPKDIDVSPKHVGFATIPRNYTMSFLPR
Procedure: as §1, §2

CYP2B6 = target: T7, CYP2B6 (Homo sapiens, UniProt P20813); conditions: pooled HLMs, up to 50 μM, bupropion substrate
T7 construct: from tissue; host or cells: pooled human liver microsomes
T7 sequence (P20813 1-491): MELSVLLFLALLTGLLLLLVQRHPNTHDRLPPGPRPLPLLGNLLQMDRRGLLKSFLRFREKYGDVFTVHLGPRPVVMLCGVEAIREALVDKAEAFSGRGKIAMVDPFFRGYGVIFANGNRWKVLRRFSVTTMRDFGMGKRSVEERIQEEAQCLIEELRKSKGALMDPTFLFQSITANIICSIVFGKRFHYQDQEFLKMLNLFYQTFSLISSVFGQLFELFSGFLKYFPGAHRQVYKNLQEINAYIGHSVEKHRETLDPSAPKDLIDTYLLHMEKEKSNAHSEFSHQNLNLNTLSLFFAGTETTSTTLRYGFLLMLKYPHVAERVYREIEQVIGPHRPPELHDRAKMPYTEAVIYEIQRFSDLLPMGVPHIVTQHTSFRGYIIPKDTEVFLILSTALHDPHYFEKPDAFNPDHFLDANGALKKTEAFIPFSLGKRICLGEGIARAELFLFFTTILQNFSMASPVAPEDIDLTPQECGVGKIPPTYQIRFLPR
Procedure: as §1, §2

T1 sequence (P33261 whole entry): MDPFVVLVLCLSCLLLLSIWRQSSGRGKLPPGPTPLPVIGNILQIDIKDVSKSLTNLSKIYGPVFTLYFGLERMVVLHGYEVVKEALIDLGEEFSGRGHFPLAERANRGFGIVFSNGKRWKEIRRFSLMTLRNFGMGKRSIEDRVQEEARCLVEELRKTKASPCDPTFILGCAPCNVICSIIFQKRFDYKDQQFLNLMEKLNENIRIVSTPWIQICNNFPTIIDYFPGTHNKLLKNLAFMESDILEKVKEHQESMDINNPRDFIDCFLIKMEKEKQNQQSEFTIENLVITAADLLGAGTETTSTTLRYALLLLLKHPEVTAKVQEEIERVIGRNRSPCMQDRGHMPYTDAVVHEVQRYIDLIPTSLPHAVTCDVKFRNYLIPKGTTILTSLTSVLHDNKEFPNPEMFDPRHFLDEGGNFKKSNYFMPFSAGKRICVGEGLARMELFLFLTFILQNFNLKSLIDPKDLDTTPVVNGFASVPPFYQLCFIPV

O=[N+]([O-])c1ccc(CNc2nc(NCc3cccc(C(F)(F)F)c3)nc3[nH]cnc23)cc1 [TNP, N^6-[(4-nitrophenyl)methyl]-N^2-[[3-(trifluoromethyl)phenyl]methyl]-9H-purine-2,6-diamine]
no inhibitory effect: inhibitory effect on CYP2C19 (CYP2C19) | inhibitory effect on CYP2D6 (CYP2D6) | inhibitory effect on CYP2E1 (CYP2E1) | inhibitory effect on CYP2C9 (CYP2C9) | inhibitory effect on CYP2C8 (CYP2C8) | inhibitory effect on CYP2A6 (CYP2A6) | inhibitory effect on CYP2B6 (CYP2B6)
